# From article PMC11429909, “Protein Structure Inspired Discovery of a Novel Inducer of Anoikis in Human Melanoma” (Cancers, 2024)
# What was measured:
# NCI-60 cell lines = test: NCI-60 cell line screen; assay type: cell-based, human; conditions: 48 h at 10 µM
# Method: The above findings support the importance of Dxr2 and FolC2 sites, and of Dxr2-017 and FolC2-001 compounds, respectively. The NCI-60 cell line screen evaluates compound growth inhibition and cell toxicity in a highly standardized manner across 60 different cell lines. Dxr2-017 and FolC2-001 were evaluated in this assay (Figure S6). NCI-60 screens evaluate cells treated for 48 h at 10 µM with a given compound. […] Of high interest, in the NCI-60 screen, Dxr2-017 had relatively high activity against melanoma cell lines, inducing cell death in five cell lines ranging from 25% to 65%, and inhibiting growth in four cell lines ranging from 76% to 96%. Its impact on cell death represented the most striking relative difference in response across cell lines.
# [1] = system: human cord blood CD34+ cells; test: Bone marrow stem cell (hematopoietic trilineage) colony formation assay; assay type: cell-based; conditions: for Mean Number of Colonies, % of Control, 14 days / Mean Number of Colonies, % of Control, 8 days: normal bone marrow, compound at 40 µM, N = 2; for Mean Number of Colonies, % of Control, 8 days: total colonies at 8 days
# Method: (§1) Human hematopoietic stem cell trilineage colony formation assays were performed as previously described by us. Briefly, human cord blood CD34+ cells (catalog #: 70008.5) were purchased from StemCell Technology Inc. and seeded at 1 × 10^4 cells per 35 mm dish. Cells were cultured in MethoCult™ Express (StemCell Technologies, Inc. (Vancouver, BC, Canada)) semisolid media, per the manufacturer’s instructions, in the presence of compound or vehicle (for controls). Compounds were added at final concentrations matching those used in the initial growth assay screens. At eight days, colonies (i.e., groups of ≥10 cells) were counted. At fourteen days, individual colonies of erythroid burst-forming units (BFU-E), colony-forming unit granulocyte–macrophage (CFU-GM), and colony-forming unit granulocyte, erythrocyte, monocyte, and megakaryocyte (CFU-GEMM) were identified based on the manufacturers’ morphologic characterization criteria. Assays were run in replicates of N = 2, and some were run in replicates of N = 4, as denoted. The mean number of colonies was then determined and expressed as the percentage of controls. The effect of each compound on inhibiting the growth of cancer cells relative to its toxic effects on normal bone marrow was evaluated. This was carried out by comparing colonies at 8 days for each cancer cell line to that of bone marrow. This information was used to calculate the efficacy ratio, as follows: efficacy ratio = (percent of remaining cancer cell colonies)/(percent of remaining bone marrow colonies). This was performed for all compounds at 40 µM and for selected compounds at 5.7 µM, as denoted. For compounds nominated for second-level screens, bone marrow colony formation assays were also repeated. Compounds were added at final concentrations matching those used in the initial screens.
# In parallel with measuring growth inhibition of cancer cell growth, we measured the effect on human hematopoietic stem cells. Hematopoietic stem cells reside in the bone marrow and are the source of mature cells present in blood. Bone marrow is one of the most sensitive organs in the body to drug toxicity, and this is especially so for anticancer drugs, where bone marrow toxicity can approach 100% [78, 79, 80]. Bone marrow toxicity was measured by performing hematopoietic colony formation assays on human CD34+ stem cells. The stem cell nature of this assay permitted the assessment of trilineage colony formation: granulocytic (white blood cells), erythrocytic (red blood cells), and megakaryocytic (platelets), measured by the formation of CFU-GM, BFU-E, and CFU-GEMM colonies, respectively. Two measurements were taken. First, total colonies at eight days were measured, thereby matching the eight-day timeframe of cancer cell colony formation assays. Second, at fourteen days, individual colonies had differentiated, permitting quantification of each lineage.
# [2] = system: breast, prostate, colon, or lung cancer cell lines; test: Eight-day colony formation assays, summary across the cancer cell line panel; assay type: cell-based, human; conditions: for efficacy at concentrations below 40 µM (in words): 8-day colony formation
# Method: Initial colony formation screening assays were conducted on all acquired compounds and examined at five different compound concentrations. Those meeting efficacy criteria underwent a second-level screen examining nine different compound concentrations. Eight-day colony formation assays of cancer cells were performed as described by us. Briefly, 0.5–1.0 × 10^3 cells were seeded into each well of a 12-well plate. Twenty-four hours later, the compound was added at the following final concentrations: 0 (DMSO-only control), 0.017, 0.12, 0.82, 5.7, and 40 µM. For each concentration, there were N = 2 replicates, i.e., 2 wells. Eight days later, plates were stained with trypan blue, visualized under light microscopy, and groups of three or more cells were scored as colonies. The mean number of colonies was then determined and expressed as the percentage of controls. Second-level screens were performed on compounds inhibiting colony formation by greater than 50% at 40 µM in at least two cell lines. Second-level assays used the following final concentrations of compound: 0 (DMSO only), 0.0061, 0.018, 0.05, 0.16, 0.49, 1.48, 4.44, 13.33, and 40 µM. All compounds were stored under desiccated conditions in a sealed container at minus 20 °C upon arrival. One day prior to use, they were dissolved in DMSO, stored at minus 20 °C as stock solutions, thawed just prior to use, and not reused.
# as §1
# We sought to identify compounds that would inhibit the growth of cancer cells, but that also did so selectively. Inhibition of cancer cell growth is a highly sought after attribute of anticancer agents. This was assessed by measuring the ability of a compound to inhibit cell growth in eight-day colony formation assays and examining concentrations ranging from 0.017 to 40 µM. Breast, colon, lung, and prostate cancer are four of the most common types of cancer in the United States, are major causes of cancer cell death, and were examined. […]
# HT29 = test: Eight-day colony formation assay, colon cancer HT29; assay type: cell-based, human; conditions: 0.82 µM
# Method: Initial colony formation screening assays were conducted on all acquired compounds and examined at five different compound concentrations. Those meeting efficacy criteria underwent a second-level screen examining nine different compound concentrations. Eight-day colony formation assays of cancer cells were performed as described by us. Briefly, 0.5–1.0 × 10^3 cells were seeded into each well of a 12-well plate. Twenty-four hours later, the compound was added at the following final concentrations: 0 (DMSO-only control), 0.017, 0.12, 0.82, 5.7, and 40 µM. For each concentration, there were N = 2 replicates, i.e., 2 wells. Eight days later, plates were stained with trypan blue, visualized under light microscopy, and groups of three or more cells were scored as colonies. The mean number of colonies was then determined and expressed as the percentage of controls. […]
# In addition to screens, eight-day colony formation assays were conducted for certain experiments, as denoted. […] The IC50 values were calculated using nonlinear regression analysis. […] The IC50 values were determined using the dose–response inhibition function. […]
# Human hematopoietic stem cell trilineage colony formation assays were performed as previously described by us. […] At eight days, colonies (i.e., groups of ≥10 cells) were counted. […] The mean number of colonies was then determined and expressed as the percentage of controls. […]
SMILES,"Mean Number of Colonies, % of Control, 14 days [1]","Mean Number of Colonies, % of Control, 8 days [1]",other results
O=C(Cn1c(=O)oc2ccccc21)N1CCn2c1nc1ccccc12 [FolC2-001],87 % of Control,108 % of Control,"activity in the NCI-60 screen (in words) (NCI-60 cell lines): against H226; efficacy ratio, mean ± SEM over cell lines with ratio below 0.5 ([2]; 40 µM, 8 days): 0.29 ± 0.09; number of cell lines with efficacy ratio below 0.5 ([2]; 40 µM, 8 days): five; efficacy at concentrations below 40 µM (in words) [2]: rapidly dropped off below 40 µM"
c1ccc(CCc2n[nH]c(-c3ccccn3)n2)cc1 [FolC1-031],85 % of Control,80 % of Control,–
O=C(Cc1n[nH]c(=O)c2ccccc12)Nn1cnc2ccccc21 [TYLT-001],103 % of Control,117 % of Control,–
O=C(COC(=O)c1cccs1)c1ccc2[nH]c(=O)[nH]c2c1 [TYLT-003],94 % of Control,97 % of Control,–
O=C(CCc1c[nH]c2ccccc12)N1CCSc2ccccc21 [FolC2-005],101 % of Control,105 % of Control,efficacy at concentrations below 40 µM (in words) [2]: A similar phenomenon was observed
"O=c1[nH]cc(F)c(=O)[nH]1 [Compound 5FU, 5-fluorouracil, reference compound]",–,–,"efficacy ratio (cancer cell colonies / bone marrow colonies, 8 days) (HT29): 0.82; effect on bone marrow colony formation (in words) ([1]; 0.82 µM): no effect on bone marrow; effect on bone marrow colony formation (in words) ([1]; 5.7 µM): profound suppressive effects; hematopoietic colony formation, % of the control ([1]; 5.7 µM, 8 days): 38 % of the control; effect on bone marrow colony formation (in words) ([1]; 40 µM): completely suppressed colony formation"
Cc1[nH]c(=O)[nH]c1C(=O)CCCCC(=O)O [EPSP-023],114 % of Control,94 % of Control,–
Cc1nnsc1C(=O)OCCCn1c(=O)[nH]c2ccccc21 [Dxr2-001],93 % of Control,109 % of Control,–
O=C(Nc1nnn[nH]1)c1cc(-c2ccccc2)nc2ccccc12 [PRT-051],119 % of Control,93 % of Control,–
